{"source": "patent US11981666B2", "about": "“GLP-1 receptor agonist and composition and use thereof” (HANGZHOU ZHONGMEIHUADONG PHARMACEUTICAL CO., LTD., priority 2021, dated 2024)", "key": {"[1]": {"test_system": "ICR mice", "assay": "Toxicological experiment in mice, 14-day repeated oral gavage (toxicokinetic study)", "type": "in vivo, mouse", "conditions": "toxicokinetic study, female animals, 200 mg/kg oral once a day for 14 days", "protocol": "(§1) Experimental method: 212 ICR mice (SPF grade), half male and half female. Animals in groups 1-5 were used for toxicity study, with 10 male and 10 female animals in each group; and animals in groups 6-9 were used for toxicokinetic study, with 14 male and 14 female animals in each group (2 of them were spare animals). […] Animals in Groups 1-9 were administered orally once a day for 14 consecutive days."}, "[2]": {"assay": "Toxicological experiment in mice, 14-day repeated oral gavage (toxicokinetic study)", "type": "in vivo, mouse", "conditions": "ICR, mouse, po, 200 mg/kg, Day 14; for AUC(0-t): plasma", "protocol": "as §1"}, "[3]": {"assay": "Caco-2 cell transport experiment", "type": "in vitro ADME", "conditions": "human", "protocol": "Caco-2 cells, 77th passage; HBSS, Lot: G210713; ACN+IS (tolbutamide 200 ng/mL); Caco-2 was inoculated on polyethylene (PET) in a 96-well Falcon plate at 2×10^5 cells/cm^2 until a confluent cell monolayer was formed on day 21-28. The culture medium was changed every 3-4 days. The test compound was diluted to a concentration of 10 uM with a transport buffer of 10 mM stock solution (HBSS without BSA) and applied to the apical side or the basolateral side of the cell monolayer. Incubation was carried out at 37° C., 5% CO2, and 95% relative humidity for 120 minutes, and the permeability of the test compound from the A to B direction or the B to A direction was determined in duplicate. The efflux ratio of each compound was determined. Test and reference compounds were quantitated by LC-MS/MS analysis based on the analyte/IS peak area ratio. […] [table]"}, "[4]": {"test_system": "ICR mice", "assay": "Toxicological experiment in mice, 14-day repeated oral gavage (toxicity study)", "type": "in vivo", "protocol": "as §1"}, "[5]": {"assay": "Metabolic stability in (human) liver microsomes", "type": "in vitro ADME", "conditions": "pH 7.4, test concentration 1 μM", "quoted_text": "3×NADPH stock solution (6 mM, 5 mg/mL) was prepared by dissolving NADPH in the buffer solution; 4. 30 μL of 1.5 μM additive solution containing 0.75 mg/mL microsomal solution was distributed to the plates designated for different time points (0, 5, 15, 30, 45 minutes); 5. at 0 min, 150 μL of ACN containing IS was added to the wells of the plate, followed by addition of 15 μL of NADPH stock solution (6 mM, step 3); 6. all other plates were pre-incubated at 37° C. for 5 minutes; 7. adding 15 μL of NADPH stock solution to the plate to start the reaction and timing; 8. 150 μL of ACN containing IS was added to the wells of the corresponding plates to stop the reaction at 5 min, 15 min, 30 min and 45 min, respectively; 9. after quenching, the plates were shaken on a shaker for 10 minutes (600 rpm/min) and then centrifuged at 6000 rpm for 15 minutes; 10. 80 μL of supernatant was transferred from each well to a 96-well sample plate containing 140 μL water for LC/MS analysis.\nDetection method: LC-MS/MS-11 (8050), internal standard: tolbutamide; MS conditions: positive ion ESI for testosterone and test compound, and negative ion ESI for tolbutamide; Mobile phases: mobile phase A is 0.1% FA in water, and mobile phase B is 0.1% FA in ACN; Column and specification: ACQUITY UPLC HSS T3 1.8 um 2.1*50 mm."}, "[6]": {"assay": "Pharmacokinetic experiment in cynomolgus monkeys", "type": "in vivo, cynomolgus monkey", "conditions": "for Vd: read-out: Vss; for F: oral 20 mg/kg vs intravenous 2 mg/kg", "protocol": "Experimental objective: To evaluate the pharmacokinetic profile of compound 1 and compare it with compound 20 (control compound).\nExperimental method: 6 male Non-juvenile cynomolgus monkeys, 4˜5 kg, were purchased from Huazheng Experimental Animal Center. Group IV was administered intravenously at a dose of 2 mg/kg (5 mL/kg) (n=3), and the group PO was administered orally at a dose of 20 mg/kg (10 mL/kg) (n=3). Approximately 500 μL blood was collected from cephalic vein and saphenous vein at each experimental time point, and centrifuged at 2,000 g for 5 min (4° C.) within 15 min after sampling for subsequent analysis."}, "[7]": {"biological_target": "T1, hERG potassium channels (Homo sapiens, UniProt Q12809)", "T1 construct": "expressed in transfected cells; host or cells: HEK-293-hERG cells", "T1 sequence (Q12809 whole entry)": "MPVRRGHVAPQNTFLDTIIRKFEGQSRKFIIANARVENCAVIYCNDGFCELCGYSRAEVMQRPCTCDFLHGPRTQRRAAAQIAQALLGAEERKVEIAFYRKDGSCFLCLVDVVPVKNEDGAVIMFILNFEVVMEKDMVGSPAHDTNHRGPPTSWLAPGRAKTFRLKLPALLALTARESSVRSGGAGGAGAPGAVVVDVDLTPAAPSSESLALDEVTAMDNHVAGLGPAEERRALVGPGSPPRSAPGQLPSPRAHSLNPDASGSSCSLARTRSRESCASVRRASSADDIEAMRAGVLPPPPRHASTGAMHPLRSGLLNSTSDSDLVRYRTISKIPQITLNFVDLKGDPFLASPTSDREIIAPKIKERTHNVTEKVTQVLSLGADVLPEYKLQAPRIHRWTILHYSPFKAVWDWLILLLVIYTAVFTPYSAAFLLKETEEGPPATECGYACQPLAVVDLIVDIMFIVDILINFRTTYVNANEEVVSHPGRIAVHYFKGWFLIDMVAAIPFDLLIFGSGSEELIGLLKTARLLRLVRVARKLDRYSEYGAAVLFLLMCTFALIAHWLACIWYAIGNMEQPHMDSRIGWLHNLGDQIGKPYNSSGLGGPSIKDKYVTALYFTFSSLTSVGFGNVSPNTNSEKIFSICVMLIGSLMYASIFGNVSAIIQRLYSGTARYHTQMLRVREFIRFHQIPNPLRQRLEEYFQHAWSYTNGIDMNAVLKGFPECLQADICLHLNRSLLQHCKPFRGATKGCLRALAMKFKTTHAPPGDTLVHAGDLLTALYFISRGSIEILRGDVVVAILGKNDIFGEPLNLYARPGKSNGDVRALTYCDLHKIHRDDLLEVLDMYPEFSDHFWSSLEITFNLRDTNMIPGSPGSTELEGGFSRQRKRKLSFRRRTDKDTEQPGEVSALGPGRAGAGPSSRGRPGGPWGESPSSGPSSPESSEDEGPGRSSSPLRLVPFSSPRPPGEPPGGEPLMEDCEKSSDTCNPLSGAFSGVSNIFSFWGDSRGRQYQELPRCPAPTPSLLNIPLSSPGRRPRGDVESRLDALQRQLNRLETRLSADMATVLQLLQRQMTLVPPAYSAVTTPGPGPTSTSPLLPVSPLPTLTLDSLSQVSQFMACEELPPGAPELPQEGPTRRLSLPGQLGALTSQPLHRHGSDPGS", "assay": "Test for inhibition of hERG potassium channels (whole-cell patch clamp, HEK-293-hERG cells)", "type": "cell-based", "conditions": "for hERG (IR): inhibition rate of tail current", "from_the_text": "Positive control: Amitriptyline hydrochloride or Terfenadine"}, "[8]": {"biological_target": "T2, Human GLP-1R (Homo sapiens, UniProt P43220)", "T2 construct": "expressed in transfected cells", "T2 sequence (P43220 24-463)": "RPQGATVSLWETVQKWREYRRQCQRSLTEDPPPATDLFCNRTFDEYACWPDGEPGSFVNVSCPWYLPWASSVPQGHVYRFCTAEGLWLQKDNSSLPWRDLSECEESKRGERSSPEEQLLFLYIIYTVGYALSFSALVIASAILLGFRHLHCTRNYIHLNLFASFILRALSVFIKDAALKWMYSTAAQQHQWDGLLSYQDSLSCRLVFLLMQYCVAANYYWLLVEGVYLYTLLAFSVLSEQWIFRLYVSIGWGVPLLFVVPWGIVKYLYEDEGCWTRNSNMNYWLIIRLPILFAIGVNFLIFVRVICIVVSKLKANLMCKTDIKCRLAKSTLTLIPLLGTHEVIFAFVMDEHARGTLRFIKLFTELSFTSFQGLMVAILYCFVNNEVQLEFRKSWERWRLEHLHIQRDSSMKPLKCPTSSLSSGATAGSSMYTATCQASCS", "assay": "GLP-1R agonistic activity assay (HTRF cAMP, 293A GFP-GLP-1R cells)", "type": "cell-based", "conditions": "cAMP level, geometric mean", "from_the_text": "The method was a competitive immunoassay."}, "[9]": {"conditions": "intravenous 2 mg/kg, male, individual animals #1, #2, #3, 2 mg/kg"}, "[10]": {"conditions": "male, cynomolgus monkey, plasma, iv, 2 mg/kg, intravenous 2 mg/kg, Mean (n=3)"}, "[11]": {"conditions": "male, cynomolgus monkey, plasma, iv, 2 mg/kg, intravenous 2 mg/kg, individual animals #1, #2, #3"}, "[12]": {"conditions": "male, cynomolgus monkey, plasma, po, 20 mg/kg, oral 20 mg/kg, Mean (n=3)"}, "[13]": {"conditions": "oral 20 mg/kg, male, individual animals #4, #5, #6, 20 mg/kg"}}, "note": "Values joined by “and” are separate entries in the source; they are usually repeats but may differ in a detail not shown here. Equal values may be shown once. Read-outs that look alike come from different tables or passages of the source.", "data": [{"smiles": "O=C(O)c1ccc2nc(CN3CCC(c4cccc(OCc5ccc(C6COC6)cc5F)n4)CC3)n(C[C@@H]3CCO3)c2c1", "note": "[Compound 1, (S)-2-((4-(6-((2-fluoro-4-(oxetan-3-yl)benzyl)oxy)pyridin-2-yl)piperidin-1-yl)methyl)-1-(oxetan-2-ylmethyl)-1H-benzo[d]imidazole-6-carboxylic acid]", "values": [{"measurement": "animals found dead", "setting": "[1]", "result": "1/14"}, {"measurement": "Cmax", "setting": "[2]; plasma of female animals", "result": 117, "unit": "µg/mL"}, {"measurement": "Cmax", "setting": "[2]; plasma of male animals", "result": 81, "unit": "µg/mL"}, {"measurement": "AUC(0-t)", "setting": "[2]; female, plasma of female animals, read-out: AUC(0-t) (second value listed)", "result": 271, "unit": "µg·h/mL"}, {"measurement": "AUC(0-t)", "setting": "[2]; female, plasma of female animals, read-out: AUC(0-t), the systemic exposure (first value listed)", "result": 291, "unit": "µg·h/mL"}, {"measurement": "AUC(0-t)", "setting": "[2]; male, plasma of male animals, read-out: AUC(0-t) (second value listed)", "result": 200, "unit": "µg·h/mL"}, {"measurement": "AUC(0-t)", "setting": "[2]; male, plasma of male animals, read-out: AUC(0-t), the systemic exposure (first value listed)", "result": 218, "unit": "µg·h/mL"}, {"measurement": "efflux ratio at 120 min, 10 uM", "setting": "[3]; Papp(BA)/Papp(AB)", "result": 5.26}, {"measurement": "Papp A→B at 120 min, 10 uM", "setting": "[3]; apical to basolateral, 10 uM, 120 minutes", "result": 31.4, "unit": "nm/s"}, {"measurement": "Papp B→A at 120 min, 10 uM", "setting": "[3]; basolateral to apical, 10 uM, 120 minutes", "result": 165, "unit": "nm/s"}, {"measurement": "non-toxic response dose level", "setting": "[4]; ICR mice, gavage once a day for 14 consecutive days", "result": 200, "unit": "mg/kg"}, {"measurement": "toxicological effects on experimental animals (conclusion)", "setting": "[4]; at the studied dose (200 mg/kg)", "result": "no significant toxicological effects"}, {"measurement": "biochemical analysis of serum", "setting": "[4]; compared to vehicle control", "result": "no significant toxicological changes"}, {"measurement": "clinical observation", "setting": "[4]; toxicity study, 100 mg/kg, presumed not related to the test compound", "result": "occasionally showed abnormal gait, decreased activity, piloerection and traumatic abnormalities"}, {"measurement": "half-life at 1 μM", "setting": "[5]", "result": 2.17, "unit": "h"}, {"measurement": "pharmacokinetic profile, orally administered (conclusion)", "setting": "[6]; compared with control compound 20", "result": "significantly better than that of the control compound 20"}, {"measurement": "AUCINF", "setting": "[6]; [9]", "result": "14.9 hr * μM and 13.0 hr * μM and 8749 hr * ng/ml and 7622 hr * ng/ml"}, {"measurement": "AUClast", "setting": "[6]; [9]", "result": "14.9 hr * μM and 13.0 hr * μM and 15215 hr * ng/ml and 8739 hr * ng/ml and 7607 hr * ng/ml"}, {"measurement": "CL", "setting": "[6]; [9]", "result": "0.131 L/h/kg and 0.229 L/h/kg and 0.262 L/h/kg"}, {"measurement": "MRTINF", "setting": "[6]; [9]", "result": "0.247 h and 0.242 h"}, {"measurement": "T1/2", "setting": "[6]; [9]", "result": "1.46 h and 1.50 h"}, {"measurement": "Vss", "setting": "[6]; [9]", "result": "0.0564 L/kg and 0.0635 L/kg"}, {"measurement": "AUC(0-inf)", "setting": "[6]; [10]", "result": "18 µM·h and 10500 ng·h/mL"}, {"measurement": "AUC(0-t)", "setting": "[6]; [10]", "result": "17.9 µM·h and 10500 ng·h/mL"}, {"measurement": "MRT inf", "setting": "[6]; [10]", "result": 0.292, "unit": "h"}, {"measurement": "clearance", "setting": "[6]; [10]", "result": 0.208, "unit": "L/h/kg"}, {"measurement": "half-life", "setting": "[6]; [10]", "result": 1.39, "unit": "h"}, {"measurement": "AUC(0-inf)", "setting": "[6]; [11]", "result": "26 µM·h and 15200 ng·h/mL"}, {"measurement": "AUC(0-t)", "setting": "[6]; [11]", "result": 26, "unit": "µM·h"}, {"measurement": "MRT inf", "setting": "[6]; [11]", "result": 0.387, "unit": "h"}, {"measurement": "half-life", "setting": "[6]; [11]", "result": 1.23, "unit": "h"}, {"measurement": "Vd", "setting": "[6]; male, cynomolgus monkey, plasma, iv, 2 mg/kg, intravenous 2 mg/kg, male, Mean (n=3)", "result": 0.0569, "unit": "L/kg"}, {"measurement": "Vd", "setting": "[6]; male, cynomolgus monkey, plasma, iv, 2 mg/kg, intravenous 2 mg/kg, male, individual animals #1, #2, #3", "result": 0.0508, "unit": "L/kg"}, {"measurement": "AUC(0-inf)", "setting": "[6]; [12]", "result": "61.8 µM·h and 36200 ng·h/mL"}, {"measurement": "AUC(0-t)", "setting": "[6]; [12]", "result": "34500 ng·h/mL and 58.9 µM·h"}, {"measurement": "MRT inf", "setting": "[6]; [12]", "result": 6.71, "unit": "h"}, {"measurement": "half-life", "setting": "[6]; [12]", "result": 5.32, "unit": "h"}, {"measurement": "Cmax", "setting": "[6]; male, cynomolgus monkey, plasma, po, 20 mg/kg, oral 20 mg/kg, male, Mean (n=3), read-out: Cmax", "result": "12700 ng/mL and 21.6 µM"}, {"measurement": "Tmax", "setting": "[6]; male, cynomolgus monkey, plasma, po, 20 mg/kg, oral 20 mg/kg, male, Mean (n=3), read-out: Tmax", "result": 1.67, "unit": "h"}, {"measurement": "Tmax", "setting": "[6]; male, cynomolgus monkey, plasma, po, 20 mg/kg, oral 20 mg/kg, male, individual animals #4, #5, #6, read-out: Tmax", "result": 2, "unit": "h"}, {"measurement": "oral bioavailability (conclusion)", "setting": "[6]; oral 20 mg/kg", "result": "high oral bioavailability"}, {"measurement": "F", "setting": "[6]; male, Mean (n=3)", "result": 32.8, "unit": "%"}, {"measurement": "F", "setting": "[6]; male, individual animals #4, #5, #6", "result": "40.5% and 16.2% and 41.8%"}, {"measurement": "AUCINF", "setting": "[6]; [13]", "result": "72.8 hr * μM and 37.3 hr * μM and 75.2 hr * μM and 42676 hr * ng/ml and 21853 hr * ng/ml and 44083 hr * ng/ml"}, {"measurement": "AUClast", "setting": "[6]; [13]", "result": "72.6 hr * μM and 29.0 hr * μM and 75.1 hr * μM and 42563 hr * ng/ml and 17014 hr * ng/ml and 44038 hr * ng/ml"}, {"measurement": "Cmax", "setting": "[6]; [13]", "result": "12500 ng/mL and 2270 ng/mL and 23200 ng/mL"}, {"measurement": "MRTINF", "setting": "[6]; [13]", "result": "3.15 h and 14.5 h and 2.47 h"}, {"measurement": "T1/2", "setting": "[6]; [13]", "result": "3.03 h and 10.4 h and 2.52 h"}, {"measurement": "Tmax", "setting": "[6]; [13]", "result": 1.00, "unit": "h"}, {"measurement": "IC50", "setting": "[7]", "result": 15.9, "unit": "µM"}, {"measurement": "hERG inhibitory activity (conclusion)", "setting": "[7]", "result": "Did not Exhibit hERG Inhibitory Activity"}, {"measurement": "hERG (IR)", "setting": "[7]; 1 μM", "result": "3.75% (1 μM)"}, {"measurement": "hERG (IR)", "setting": "[7]; 10 μM", "result": "40.7 (10 μM) %"}, {"measurement": "EC50", "setting": "[8]", "result": 0.03, "unit": "nM"}]}]}
